Where two headings read alike, the source gives them in different places.
B1: Del-1 protein: Developmentally regulated Endothelial Locus-1, an endothelial cell stimulating angiogenic protein (protein, UniProt O43854 24-480, looked up)
EGF-like repeat and discoidin …: DICDPNPCENGGICLPGLADGSFSCECPDGFTDPNCSSVVEVASDEEEPTSAGPCTPNPCHNGGTCEISEAYRGDTFIGYVCKCPRGFNGIHCQHNINECEVEPCKNGGICTDLVANYSCECPGEFMGRNCQYKCSGPLGIEGGIISNQQITASSTHRALFGLQKWYPYYARLNKKGLINAWTAAENDRWPWIQINLQRKMRVTGVITQGAKRIGSPEYIKSYKIAYSNDGKTWAMYKVKGTNEDMVFRGNIDNNTPYANSFTPPIKAQYVRLYPQVCRRHCTLRMELLGCELSGCSEPLGMKSGHIQDYQITASSIFRTLNMDMFTWEPRKARLDKQGKVNAWTSGHNDQSQWLQVDLLVPTKVTGIITQGAKDFGHVQFVGSYKLAYSNDGEHWTVYQDEKQRKDKVFQGNFDNDTHRKNVIDPPIYARHIRILPWSWYGRITLRSELLGCTEEE

How the values were obtained:
[1] = tested on: patients with intermittent claudication; settings: cited from earlier work
[2] = tested on: HUVEC cells; experiment: Adenosine release from HUVEC by liquid chromatography; format: cell-based, human; settings: over time, normoxic and hypoxic
Experimental: For this reason, studies were undertaken to determine the effect of certain poloxamers in vitro in human vascular endothelial cells (HUVEC) and human skeletal muscle myoblast (HSMM) cells under normoxic and hypoxic (5% O2) conditions. Production of adenosine, cytokines, growth factors, or a combination of these biologically relevant molecules was measured after exposure to either poloxamer-188 (˜BASF Pluronic F-68), poloxamer-235 (˜BASF Pluronic P85), cilostazol, Del-1 protein, or medium alone. Monitoring for generation of adenosine was conducted by HPLC. […] This increased level of adenosine was seen over time in both hypoxic and normoxic cells exposed to poloxamer-235.
HUVEC and HSMM cells are harvested after fourth population doubling from the time of purchase by trypsinization. The cells are suspended in appropriate complete medium and plated in a 60×15 culture dishes at the density of […] per well and incubated for 24 hrs. The cells are fed with EBM (HUVEC cells) and SkBM (HSMM cells) culture medium containing 0.5% FCS for 24 hrs to growth-arrest the cells. […]

[3] = tested on: patients with intermittent claudication; settings: Lederman et al. 2002; cited from earlier work
[4] = tested on: CD-1 mice; experiment: Murine hindlimb ischemia model; format: in vivo, mouse; settings: repeated intramuscular injections
Description: A gene-based approach to Del-1 delivery using a plasmid vector was developed for the purpose of enhancing relatively sustained local concentrations with a consequent reduction in systemic exposure to the angiogenic growth factor while at the same time avoiding known adverse effects that may arise with the use of a viral platform.
Results from preclinical studies with recombinant murine Del-1 protein and with formulated Del-1 plasmid compared favorably to results obtained with bFGF and VEGF165. In-house research provided for selection of the non-ionic polymer poloxamer 188 as an important constituent for a pharmaceutical formulation of the Del-1 gene encoded on plasmid DNA. The poloxamer formulation was developed after considerable research to provide for a compound that would give increased expression over DNA in saline.
The effects of formulated hDel-1 plasmid versus formulated VEGF165 plasmid and empty plasmid were investigated in a murine hindlimb ischemia model. Bilateral ischemia was induced in hindlimbs of CD-1 mice by ligation of the femoral artery. A control group underwent sham surgery without femoral artery ligation. […] Exercise tolerance was then determined at weekly intervals through four weeks post surgery.

[5] = tested on: mice; experiment: Subcutaneous Matrigel implant model; format: in vivo, mouse
Description: Poloxamer Inhibition of Inflammation in Murine Study: Initial studies incorporating either FGF (positive control), saline (negative control), Del-1 protein (another known angiogenic agent) or poloxamer-188 into Matrigel that was placed subcutaneously into the lower abdomen of mice yielded interesting results. Matrigel Basement Membrane Matrix (BD Biosciences) is a solubilized basement membrane preparation extracted from the Engelbreth-Holm-Swarm (EHS) mouse sarcoma. Its major component is laminin, followed by collagen IV, heparan sulfate proteoglycans, entactin and nidogen. In the Matrigel angiogenesis model, poloxamer-188 was compared to other known angiogenic agents such as fibroblast growth factor (FGF, positive control), Del-1 protein, or saline as a negative control.
After gaining experience with the system, it was felt that the quantity of Del-1 used should be titrated to see if a dose response with the protein could be distinguished, and to alter the ratio of P188 to matrigel. In the first round of studies it was noted that the 5% P188 concentration added to the Matrigel appeared to inhibit polymerization of the Matrigel. […] Therefore, in the repeat in vivo experiment the Matrigel and poloxamer concentrations were altered such that the initial concentrations were similar to those that yielded good polymerization, but still gave a final concentration of 5% P188 (the concentration tested in clinical trials).
Matrigel implants were placed subcutaneously in the lower abdominal/inguinal region of mice and harvested 4 to 7 days later.

| Molecule | peak walking time ([1]; 100 mg twice/day) | observed difference in change in PWT versus placebo ([1]; Dawson et al. 1998) [min] | side effects (headaches, palpitations, gastrointestinal disturbances) ([1]; clinical trials) | adenosine in the supernatant [2] | observed difference in change in PWT versus placebo [3] [min] | vascular perfusion [4] | cellular response of Matrigel implant ([5]; Del-1 less than 200 ugs/ml) | vessel growth in Matrigel angiogenesis model ([5]; first round of studies) | morphologic pattern of Matrigel implant (cellularity) ([5]; harvested 4 to 7 days, H&E, Del-1 at 200 ug/ml) |
| --- | --- | --- | --- | --- | --- | --- | --- | --- | --- |
| O=C1CCc2cc(OCCCCc3nnnn3C3CCCCC3)ccc2N1 [cilostazol] | improve peak walking time | 2.00 | high incidence of side effects | least stimulatory |  |  |  |  |  |
| recombinant fibroblast growth factor-2: recombinant fibroblast growth factor-2 of the TRAFFIC study |  |  |  |  | 1.17 |  |  |  |  |
| B1 |  |  |  | least stimulatory |  | increased vascular perfusion | substantially less cellular response | light to moderate vessel growth | high cellularity |
